The record followed here is ChEMBL document CHEMBL1201862, “PubChem BioAssay data set” (2004).

Holding throughout (assay): growth of human tumour cells (NCI), 48 h
The test system of experiment [1] is DMS-273.
Experiment [2] has as its system DLD-1.
Experiment [3] has as its system M19-MEL.
In experiment [4] the test system is HOP-18.
Experiment [5] deals with DMS-114.
Experiment [6] relates to LXFL 529.
In experiment [7] the test system is SNB-78.
The subject of experiment [8] is XF498.
Experiment [9] relates to RXF 631.

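Compound exposure: 48 hours, 5 concentrations, 96-well plates. Abbreviation: GI50, concentration required for 50% inhibition of growth.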 The source made the active and inactive calls. No stated cut-off is given here; in the data, active = GI50 up to about 1.1 µM and inactive = higher.

`N#CC1CC2(C(=O)C1=O)c1ccccc1-c1ccccc12` (stereo not given): the GI50 in experiment [1] is > 100 µM (inactive); in [2], > 100 µM (inactive); in [3] it was > 100 µM (inactive); in [4], 82 µM (inactive); in experiment [5] it was > 100 µM (inactive); in experiment [6], > 100 µM (inactive).

Take `COC1(C)C(=O)N2C1N(C(=O)OC(C)(C)C)CC2(C)C` (stereo not given): the GI50 in experiment [7] is > 100 µM (inactive); in experiment [1], > 100 µM (inactive); in experiment [2] it was > 100 µM (inactive); in [3] it was > 100 µM (inactive); in [4], > 100 µM (inactive); in experiment [5] it was 42.8 µM (inactive). For the same compound, the GI50 in experiment [6] is > 100 µM (inactive).

Turning to `COc1ccc(Nc2nc3c(N)cc(C(F)(F)F)cc3nc2-c2ccccc2)cc1`, the GI50 was 60.4 µM (inactive) in experiment [7]; > 100 µM (inactive) in experiment [1]; > 100 µM (inactive) in [2]; 31.7 µM (inactive) in experiment [8]; > 100 µM (inactive) in experiment [3]; 36.7 µM (inactive) in [4]. In addition, the GI50 is 44.6 µM (inactive) in [9], 80.7 µM (inactive) in [5] and 78.2 µM (inactive) in experiment [6].

`O=C(COC(=O)c1cccc2c(=O)c3ccccc3[nH]c12)Nc1ccc(Cl)cc1`: the GI50 in experiment [7] is 25.7 µM (inactive); in experiment [2], 16.9 µM (inactive); in experiment [8] it was 46.8 µM (inactive); in experiment [3] it was > 100 µM (inactive); in experiment [4], > 100 µM (inactive); in experiment [5] it was 58.6 µM (inactive). In experiment [6], the GI50 was 61.7 µM (inactive).

As for `N#CCC(=O)N1CCCCCCC1`, the GI50 in experiment [7] was > 100 µM (inactive); in experiment [1], 35.7 µM (inactive); in [2] it was > 100 µM (inactive); in experiment [5], 31.3 µM (inactive); in [6] it was 77.8 µM (inactive).

Turning to `CC(=O)Oc1ccccc1C(=O)C1c2cccc(O)c2C(=O)c2c(O)cccc21`, the GI50 is 1.27 µM (inactive) in experiment [7]; 1.24 µM (inactive) in [1]; 1.23 µM (inactive) in experiment [2]; 0.561 µM (active) in [8]; 1.01 µM (active) in [3]; 2.16 µM (inactive) in experiment [4]. Also, the GI50 is 3.01 µM (inactive) in experiment [9], 0.366 µM (active) in experiment [5] and 1.29 µM (inactive) in experiment [6].

Regarding `COc1ccc(/C=N/N=C(\N)NO)cc1O`, the GI50 in [7] is > 100 µM (inactive); in experiment [2] it was 33.8 µM (inactive); in experiment [4], > 100 µM (inactive); in [5] it was 30.2 µM (inactive); in experiment [6], > 100 µM (inactive).

With `CCc1cccc(CC)c1NC(=O)C1=C(C)NC(C)=C(C(=O)Nc2c(CC)cccc2CC)C1c1ccc2c(c1)OCO2`, the GI50 in experiment [7] is 22.6 µM (inactive); in [1], 13.3 µM (inactive); in [2] it was 24.3 µM (inactive); in experiment [3] it was 16.7 µM (inactive); in experiment [4], 20.6 µM (inactive); in experiment [6], 15.9 µM (inactive).

As to `CC1(C)OCC(CO)(Nc2nc(N3CC3)nc(N3CC3)n2)CO1`, the GI50 in [7] is 22.3 µM (inactive); in experiment [1], 3.04 µM (inactive); in experiment [2], 31.3 µM (inactive); in experiment [8], 14.3 µM (inactive); in experiment [3] it was 13.9 µM (inactive); in [4], 27 µM (inactive). The GI50 in experiment [5] was 4.65 µM (inactive); in experiment [6], 24.5 µM (inactive).

Take `C/C(=N/Nc1ccc([N+](=O)[O-])cc1[N+](=O)[O-])C(CC(C(=O)Nc1ccccc1C)/C(C)=N\Nc1ccc([N+](=O)[O-])cc1[N+](=O)[O-])C(=O)Nc1ccccc1C` (stereo not given): the GI50 in experiment [7] is 16.4 µM (inactive); in [1] it was 14.8 µM (inactive); in [2] it was 28.4 µM (inactive); in experiment [8], 14.5 µM (inactive); in [3], 12.4 µM (inactive); in experiment [4], 14.4 µM (inactive). For the same compound, the GI50 in experiment [5] was 6.87 µM (inactive); in experiment [6], 14.3 µM (inactive).

As for `CCN(CC)Cc1cc(Nc2c3ccccc3nc3c2[nH]c2ccccc23)ccc1O`, the GI50 in [7] was 2 µM (inactive); in [1], 0.565 µM (active); in [2], 1.25 µM (inactive); in experiment [8], 1.76 µM (inactive); in experiment [3] it was 1.63 µM (inactive); in [4], 1.6 µM (inactive). The GI50 was 1.8 µM (inactive) in [9], 1.64 µM (inactive) in experiment [5] and 1.39 µM (inactive) in experiment [6].

As to `CC(C)(C)NNC(=O)/C(=C/c1ccc([N+](=O)[O-])cc1)NC(=O)c1ccccc1`, the GI50 in experiment [7] was > 100 µM (inactive); in experiment [1], 33.7 µM (inactive); in experiment [2], 43.5 µM (inactive); in experiment [8], > 100 µM (inactive); in experiment [3], > 100 µM (inactive); in experiment [4], > 100 µM (inactive). Besides, the GI50 in [5] is 18.6 µM (inactive); in experiment [6], > 100 µM (inactive).

Take `C=CCc1cc(-c2cc(CC=C)c(O)c(CNC)c2)cc(CNC)c1O`: the GI50 in experiment [7] was 19.5 µM (inactive); in experiment [2], 15.4 µM (inactive); in experiment [8], 16.3 µM (inactive); in [3], 14.2 µM (inactive); in [9], 15.3 µM (inactive); in [5], 16.1 µM (inactive). Further, in experiment [6], the GI50 was 15.2 µM (inactive).

On to `CCCC(O)c1cn(-c2cccc(S(=O)(=O)O)c2)nn1` (stereo not given), for which the GI50 in [7], in experiment [1], in experiment [2], in experiment [8], in [3] and in experiment [4] was > 100 µM (inactive) in each case. Besides, the GI50 in experiment [9], in [5] and in experiment [6] was > 100 µM (inactive) each time.

On to `CCOC(=O)C(=C=Cc1cccs1)C(=O)c1ccccc1`, for which the GI50 was 18.3 µM (inactive) in experiment [7]; 17.4 µM (inactive) in experiment [1]; 14.3 µM (inactive) in [2]; 16.2 µM (inactive) in experiment [8]; 17.2 µM (inactive) in [3]; 17.5 µM (inactive) in experiment [4]. For the same compound, the GI50 in experiment [6] was 14.9 µM (inactive).

`COC(=O)C1=C(O)C(O)=C(C(=O)OC)CC1`: the GI50 in [7], in experiment [1], in [2], in [8], in experiment [3] and in experiment [4] was > 100 µM (inactive) each time. Also, the GI50 in experiment [5] and in [6] was > 100 µM (inactive) throughout.

Consider `O=C(NC12CC3CC(CC(F)(C3)C1)C2)c1ccccc1`, for which the GI50 in experiment [7], in experiment [1], in [2], in [8], in experiment [3] and in experiment [5] was > 100 µM (inactive) throughout. The GI50 in [6] was > 100 µM (inactive).
